Experimental data taken from patent US8614206B2 (Genentech, Inc., priority 2011, dated 2013).

Biological target: PIM1 (Homo sapiens (Human), UniProt P11309)
Assay: Pim kinase inhibition, PIM1 LC3K (Example 901)
Assay type: biochemical
Text: Determination of the Pim kinase activity of a Formula I compound is possible by a number of direct and indirect detection methods.

Sequence of PIM1 (P11309 whole entry): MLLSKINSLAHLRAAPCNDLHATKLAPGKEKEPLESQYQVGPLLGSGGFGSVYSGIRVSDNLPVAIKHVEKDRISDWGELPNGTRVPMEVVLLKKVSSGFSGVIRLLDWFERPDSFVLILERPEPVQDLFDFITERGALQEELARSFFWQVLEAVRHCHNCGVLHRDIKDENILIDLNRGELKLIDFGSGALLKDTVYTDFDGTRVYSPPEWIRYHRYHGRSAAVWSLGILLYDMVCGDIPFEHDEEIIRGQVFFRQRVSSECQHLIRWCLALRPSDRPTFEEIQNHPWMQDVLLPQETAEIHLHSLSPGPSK

Structure (SMILES) | Ki [nM]
Cn1ncc(NC(=O)c2nc(-c3cc(F)ccc3F)sc2N)c1N1CC[C@@H](F)[C@@H](N)CC1 [Example 266, 5-amino-N-(5-((4S,5R)-4-amino-5-fluoroazepan-1-yl)-1-methyl-1H-pyrazol-4-yl)-2-(2,5-difluorophenyl)thiazole-4-carboxamide] | 0.253
Cn1ncc(NC(=O)c2nc(-c3ncccc3F)sc2N)c1N1CC[C@H](N)[C@@H](F)CC1 [Example 269, 5-amino-N-(5-((4S,5S)-4-amino-5-fluoroazepan-1-yl)-1-methyl-1H-pyrazol-4-yl)-2-(3-fluoropyridin-2-yl)thiazole-4-carboxamide] | 0.091
Cc1ccc(F)c(-c2nc(C(=O)Nc3cnn(C)c3N3CC[C@@H](F)[C@@H](N)CC3)c(N)s2)c1 [Example 272, 5-amino-N-(5-((4S,5R)-4-amino-5-fluoroazepan-1-yl)-1-methyl-1H-pyrazol-4-yl)-2-(2-fluoro-5-methylphenyl)thiazole-4-carboxamide] | 0.147
Cn1ncc(NC(=O)c2nc(-c3cc(F)ccc3F)sc2N)c1N1CC[C@@H](N)CC(F)(F)C1 [Example 283, (R)-5-amino-N-(5-(5-amino-3,3-difluoroazepan-1-yl)-1-methyl-1H-pyrazol-4-yl)-2-(2,5-difluorophenyl)thiazole-4-carboxamide] | 0.008
Cc1ccc(F)c(-c2nc(C(=O)Nc3cnn(C)c3N3CC[C@H](N)CC(F)(F)C3)c(N)s2)c1 [Example 284, (S)-5-amino-N-(5-(5-amino-3,3-difluoroazepan-1-yl)-1-methyl-1H-pyrazol-4-yl)-2-(2-fluoro-5-methylphenyl)thiazole-4-carboxamide] | 0.015
Cc1ccc(F)c(-c2nc(C(=O)Nc3cnn(C)c3N3CC[C@@H](N)CC(F)(F)C3)c(N)s2)c1 [Example 285] | 0.018
C[C@H]1CN(c2c(NC(=O)c3nc(-c4c(F)cccc4F)sc3N)cnn2CC(F)(F)F)CCN1 [Example 301, (S)-5-Amino-2-(2,6-difluorophenyl)-N-(5-(3-methylpiperazin-1-yl)-1-(2,2,2-trifluoroethyl)-1H-pyrazol-4-yl)thiazole-4-carboxamide] | 2.1
Nc1sc(-c2c(F)cccc2F)nc1C(=O)Nc1cnn(CC(F)(F)F)c1N1CCCCC(N)C1 (stereo not drawn) [Example 302, 5-Amino-2-(2,6-difluoro-phenyl)-thiazole-4-carboxylic acid [5-(3-amino-azepan-1-yl)-1-(2,2,2-trifluoro-ethyl)-1H-pyrazol-4-yl]-amide] | 0.175
Nc1sc(-c2c(F)cccc2F)nc1C(=O)Nc1cnn(CC(F)(F)F)c1N1CCCCC(N)C1 (stereo not drawn) [Example 303, 5-Amino-2-(2,6-difluoro-phenyl)-thiazole-4-carboxylic acid [5-(3-amino-azepan-1-yl)-1-(2,2,2-trifluoro-ethyl)-1H-pyrazol-4-yl]-amide] | 0.208
Cn1ncc(NC(=O)c2nc(-c3c(F)cccc3F)sc2N)c1N1CCC[C@H](N(CCO)CCO)CC1 [Example 336, 5-amino-N-[5-[(4S)-4-[bis(2-hydroxyethyl)amino]azepan-1-yl]-1-methyl-pyrazol-4-yl]-2-(2,6-difluorophenyl)thiazole-4-carboxamide] | 0.199
Nc1sc(-c2cc(F)ccc2F)nc1C(=O)Nc1cnn(C2CC2)c1N1CCC(N)C(F)CC1 (stereo not drawn) [Example 338, 5-amino-N-[5-(4-amino-5-fluoro-azepan-1-yl)-1-cyclopropyl-pyrazol-4-yl]-2-(2,5-difluorophenyl)thiazole-4-carboxamide] | 0.159
Cn1ncc(NC(=O)c2nc(-c3c(F)cccc3F)sc2N)c1N1CCC[C@H](NCC2COC2)CC1 [Example 342, 5-amino-2-(2,6-difluorophenyl)-N-[1-methyl-5-[(4S)-4-(oxetan-3-ylmethylamino)azepan-1-yl]pyrazol-4-yl]thiazole-4-carboxamide] | 0.075
Cn1ncc(NC(=O)c2nc(-c3c(F)cccc3F)sc2N)c1N1CCC2(CNC2)C1 [Example 359, 5-amino-N-[5-(2,6-diazaspiro[3.4]octan-6-yl)-1-methyl-pyrazol-4-yl]-2-(2,6-difluorophenyl)thiazole-4-carboxamide] | 0.783
Cn1ncc(NC(=O)c2nc(-c3c(F)cccc3F)sc2N)c1N1CCCN(C2CNC2)CC1 [Example 362, 5-amino-N-[5-[4-(azetidin-3-yl)-1,4-diazepan-1-yl]-1-methyl-pyrazol-4-yl]-2-(2,6-difluorophenyl)thiazole-4-carboxamide] | 0.25
CCn1ncc(NC(=O)c2nc(-c3c(F)cccc3F)sc2N)c1N1CC[C@H](OC)[C@@H](N)CC1 [Example 364, 5-amino-N-(5-((4S,5S)-4-amino-5-methoxyazepan-1-yl)-1-ethyl-1H-pyrazol-4-yl)-2-(2,6-difluorophenyl)thiazole-4-carboxamide] | 0.247
Cn1ncc(NC(=O)c2nc(-c3cncc(F)c3)sc2N)c1N1CCC[C@H](N)CC1 [Example 420, 5-amino-N-[5-[(4S)-4-aminoazepan-1-yl]-1-methyl-pyrazol-4-yl]-2-(5-fluoro-3-pyridyl)thiazole-4-carboxamide] | 4.25

Now from value to molecule:

Ki [nM] | Structure (SMILES)
0.038 | Cc1ccc(F)c(-c2nc(C(=O)Nc3cnn(C)c3N3CC[C@@H](N)[C@@H](F)CC3)c(N)s2)c1 [Example 265, 5-amino-N-(5-((4R,5S)-4-amino-5-fluoroazepan-1-yl)-1-methyl-1H-pyrazol-4-yl)-2-(2-fluoro-5-methylphenyl)thiazole-4-carboxamide]
0.186 | Cn1ncc(NC(=O)c2nc(-c3ncccc3F)sc2N)c1N1CC[C@@H](N)[C@H](F)CC1 [Example 268, 5-amino-N-(5-((4R,5R)-4-amino-5-fluoroazepan-1-yl)-1-methyl-1H-pyrazol-4-yl)-2-(3-fluoropyridin-2-yl)thiazole-4-carboxamide]
0.058 | Cn1ncc(NC(=O)c2nc(-c3cc(F)ccc3F)sc2N)c1N1CC[C@@H](N)[C@@H](F)CC1 [Example 271, 5-amino-N-(5-((4R,5S)-4-amino-5-fluoroazepan-1-yl)-1-methyl-1H-pyrazol-4-yl)-2-(2,5-difluorophenyl)thiazole-4-carboxamide]
0.02 | Nc1sc(-c2c(F)cccc2F)nc1C(=O)Nc1cnn(CC(F)F)c1N1CC[C@@H](N)CC(F)(F)C1 [Example 281]
0.004 | Cn1ncc(NC(=O)c2nc(-c3cc(F)ccc3F)sc2N)c1N1CC[C@H](N)CC(F)(F)C1 [Example 282, (S)-5-amino-N-(5-(5-amino-3,3-difluoroazepan-1-yl)-1-methyl-1H-pyrazol-4-yl)-2-(2,5-difluorophenyl)thiazole-4-carboxamide]
0.087 | Cc1ccc(F)c(-c2nc(C(=O)Nc3cnn(C4CC4)c3N3CCC(N)C(F)CC3)c(N)s2)c1 (stereo not drawn) [Example 330, 5-amino-N-[5-(4-amino-5-fluoro-azepan-1-yl)-1-cyclopropyl-pyrazol-4-yl]-2-(2-fluoro-5-methyl-phenyl)thiazole-4-carboxamide]
0.295 | Cn1ncc(NC(=O)c2nc(-c3c(F)cccc3F)sc2N)c1N1CCC[C@H](NCC2(C)COC2)CC1 [Example 334, 5-amino-2-(2,6-difluorophenyl)-N-[1-methyl-5-[(4S)-4-[(3-methyloxetan-3-yl)methylamino]azepan-1-yl]pyrazol-4-yl]thiazole-4-carboxamide]
0.226 | Nc1sc(-c2cc(F)ccc2F)nc1C(=O)Nc1cnn(C2CC2)c1N1CCC(N)C(F)CC1 (stereo not drawn) [Example 339, 5-amino-N-[5-(4-amino-5-fluoro-azepan-1-yl)-1-cyclopropyl-pyrazol-4-yl]-2-(2,5-difluorophenyl)thiazole-4-carboxamide]
0.962 | Cn1ncc(NC(=O)c2nc(-c3c(F)cccc3F)sc2N)c1N1CCC[C@H](N(CC2COC2)CC2COC2)CC1 [Example 343, 5-amino-N-[5-[(4S)-4-[bis(oxetan-3-ylmethyl)amino]azepan-1-yl]-1-methyl-pyrazol-4-yl]-2-(2,6-difluorophenyl)thiazole-4-carboxamide]
0.391 | Cn1ncc(NC(=O)c2nc(-c3c(F)cccc3F)sc2N)c1N1CCC2(CCNC2=O)CC1 [Example 360, 5-amino-2-(2,6-difluorophenyl)-N-[1-methyl-5-(1-oxo-2,8-diazaspiro[4.5]decan-8-yl)pyrazol-4-yl]thiazole-4-carboxamide]
0.223 | CCn1ncc(NC(=O)c2nc(-c3c(F)cccc3F)sc2N)c1N1CC[C@H](N)[C@H](OC)CC1 [Example 376, 5-amino-N-(5-((4S,5R)-4-amino-5-methoxyazepan-1-yl)-1-ethyl-1H-pyrazol-4-yl)-2-(2,6-difluorophenyl)thiazole-4-carboxamide]
2.81 | Cn1ncc(NC(=O)c2nc(-c3c(F)cccc3F)sc2N)c1N1CCNCC(C#N)C1 (stereo not drawn) [Example 382, 5-amino-N-[5-(6-cyano-1,4-diazepan-1-yl)-1-methyl-pyrazol-4-yl]-2-(2,6-difluorophenyl)thiazole-4-carboxamide]
0.613 | CC(=O)NC1(C)CCCN(c2c(NC(=O)c3nc(-c4ncccc4F)sc3N)cnn2C)CC1 (stereo not drawn) [Example 384, N-[5-(4-acetamido-4-methyl-azepan-1-yl)-1-methyl-pyrazol-4-yl]-5-amino-2-(3-fluoro-2-pyridyl)thiazole-4-carboxamide]
0.103 | CO[C@@H]1CCN(c2c(NC(=O)c3nc(-c4c(F)cccc4F)sc3N)cnn2C2CC2)CC[C@@H]1N [Example 386, 5-amino-N-(5-((4S,5R)-4-amino-5-methoxyazepan-1-yl)-1-cyclopropyl-1H-pyrazol-4-yl)-2-(2,6-difluorophenyl)thiazole-4-carboxamide]
14 | Cn1ncc(NC(=O)c2nc(-c3cccc(O)n3)sc2N)c1N1CCC[C@H](N)CC1 [Example 393, 5-amino-N-[5-[(4S)-4-aminoazepan-1-yl]-1-methyl-pyrazol-4-yl]-2-(6-hydroxy-2-pyridyl)thiazole-4-carboxamide]
2.12 | Cn1ncc(NC(=O)c2nc(-c3ccnc(F)c3)sc2N)c1N1CCC[C@H](N)CC1 [Example 417, 5-amino-N-[5-[(4S)-4-aminoazepan-1-yl]-1-methyl-pyrazol-4-yl]-2-(2-fluoro-4-pyridyl)thiazole-4-carboxamide]
0.785 | Cn1cc(-c2nc(C(=O)Nc3cnn(C)c3N3CCC[C@H](N)CC3)c(N)s2)cn1 [Example 419, 5-amino-N-[5-[(4S)-4-aminoazepan-1-yl]-1-methyl-pyrazol-4-yl]-2-(1-methylpyrazol-4-yl)thiazole-4-carboxamide]
